The values that follow come from patent publication US5616684A, “Cyclic peptides and use thereof” (priority 1991, dated 1997).

The conditions of data set [1]: amide bond.
The target of data set [2] is T1, endothelin receptor A (ETA) (Sus scrofa, UniProt Q29010).
T1 construct: A membrane fraction prepared from the porcine heart; from tissue; host or cells: porcine heart membrane fraction
T1 sequence (Q29010 21-427): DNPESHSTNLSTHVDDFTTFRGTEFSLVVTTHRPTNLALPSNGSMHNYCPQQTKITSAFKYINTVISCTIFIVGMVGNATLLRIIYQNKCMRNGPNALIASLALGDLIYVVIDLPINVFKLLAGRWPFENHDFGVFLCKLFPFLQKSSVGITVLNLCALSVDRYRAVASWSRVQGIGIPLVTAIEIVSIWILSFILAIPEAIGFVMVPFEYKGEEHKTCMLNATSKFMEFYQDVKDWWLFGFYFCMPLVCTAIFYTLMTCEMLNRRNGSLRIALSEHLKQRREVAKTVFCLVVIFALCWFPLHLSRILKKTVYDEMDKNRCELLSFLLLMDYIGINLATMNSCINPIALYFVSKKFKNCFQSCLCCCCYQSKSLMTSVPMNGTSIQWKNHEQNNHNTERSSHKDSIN
As to the kind of experiment: Assay of Affinity for Receptor (1): Binding Activity on ETA Receptor. Also on record: key to Binding Activity on ET Receptor (R. act.) ETA: relative binding activity; reference cyclic pentapeptide = 1.0. Particulars: specific activity, binding activity of cyclo[-D-Glu-Ala-D-aIle-Leu-D-Trp-] taken as 1.0; porcine heart membrane fraction, 125I-labeled endothelin-1, 25° C., 1 hour. As for the experimental part: Assay of Affinity for Receptor (1) . . . Binding Activity on ETA Receptor
A membrane fraction prepared from the porcine heart was diluted to 0.15 mg/ml by using a buffer solution for assay, and 100 μl of the resulting suspension of the membrane fraction was poured into each assay tube to use for assay. To this suspension of the membrane fraction was added 2 μl of 5 nM ^125 I-labeled endothelin-1 solution. Further, 3 μl of a test peptide solution was added thereto, followed by incubation at a temperature of 25° C. for 1 hour. Then, the resulting suspension was diluted with 900 μl of the buffer solution for assay cooled with ice, and thereafter separated into a supernatant and a precipitate by centrifugation at 12,000×g for 10 minutes. Cell membranes and an endothelin receptor A (ETA) embedded therein were contained in the precipitate, and radioactive iodine-labeled endothelin combined with the receptor was also recovered in the precipitate. Accordingly, the amount of radioactive iodine-labeled endothelin combined with the endothelin receptor A (ETA) was determined by measuring the amount of radioactive iodine contained in the precipitate with a gamma-ray counter. The cyclic pentapeptide described in Japanese Patent Application No. 2-413828/1990, cyclo[-D-Glu-Ala-D-aIle-Leu-D-Trp-], was used as a control compound. The numerical value of ETA shown in Table 1 is the value of specific activity, taking the binding activity of this cyclic pentapeptide on the receptor A as 1.0. The binding activity (IC50) of this cyclic pentapeptide on the ETA receptor is 2×10^-6 M.

Data set [3] deals with ETB receptor (guinea pig kidney crude receptor membrane fraction). Kind of data set: ETB Radio Receptor Assay *2. Conditions: relative activity (Example 8 given as 100), 125I-endothelin-1, 37° C., 90 minutes. The class given is binding. As for the experimental part:
ETB Radio Receptor Assay *2
In the endothelin radio receptor assay, guinea pigs' kidneys were used. Guinea pigs (Std Hartrey, male 250 g, Japan SLC Ltd.) were made to have a cerebral concussion and sacrificed by bleeding from carotid arteries to pick up the kidneys and removed fat therefrom to prepare the kidneys. The obtained kidneys were sliced and homogenized by politron homogenizer in 20 ml of 50 mM Tris-HCl buffer [pH 7.4; 20 mM NaHCO3, 0.1 mM PMSF (Phenylmethylsulfonyl Fluoride), 1 mM EDTA (Ethylenediaminetetraacetic acid)] per one kidney. The homogenized kidney was applied to a centrifugation at 1,000×g for 15 minutes and the supernatant was further applied to a centrifugation for 20 minutes at 30,000×g. The resulting precipitate was twice washed with 50 mM Tris-HCl buffer (pH 7.4) containing 0.1 mM PMSF, 1 mM EDTA. The resultant was stored at -80 ° C. as a crude receptor membrane fraction and was used as the suspension in the following buffer when necessary.
740 Bq of ^125 I-endothelin-1 (81.4 TBq/mmol, Du Pont, USA) as a radio ligand, the crude membrane fraction (2.1 μg protein) and samples were added to the following buffer. The reaction was performed at 37° C., for 90 minutes in 0.2 ml of the buffer [50 mM Tris-HCl buffer (pH 7.4) containing 0.1 mM PMSF, 1 mM EDTA, 0.2% bovine serum albumin].
The reaction was stopped by fast filtration on a glass filter (GF/B, Wattman, USA) by Cell Harvestor (290 PHD, Cambridge-Technology, Great Britain), and the filter was three times washed with 50 mM Tris-HCl buffer (pH 7.4). Radio activity remained on the filter was assayed by a gamma counter.

Like-named read-outs stand apart in the source and are kept apart here. Non-standard residues stand in square brackets, D forms with d. Residues, ends and D or L forms follow the SMILES beside them.

In the case of `CC(C)C[C@@H]1NC(=O)[C@@H](c2cccs2)NC(=O)[C@H](CC(=O)OCc2ccccc2)NC(=O)[C@H](CC(=O)NCCc2c[nH]c3ccccc23)NC(=O)[C@@H](CC(=O)OCc2ccccc2)NC(=O)[C@@H](Cc2c[nH]c3ccccc23)NC1=O`, the ring closure, yield of all isomers in data set [1] (from CC(C)C[C@H](NC(=O)[C@H](NC(=O)[C@H](CC(=O)OCc1ccccc1)NC(=O)[C@H](CC(=O)NCCc1c[nH]c2ccccc12)NC(=O)[C@@H](CC(=O)OCc1ccccc1)NC(=O)[C@@H](Cc1c[nH]c2ccccc12)NC(=O)OC(C)(C)C)c1cccs1)C(=O)O, HONB/DCC (active ester), then diisopropylethylamine, DMF, 4.75 mM, 3 steps) amounted to 90.4%.
For the compound `CC(C)C[C@@H]1NC(=O)[C@@H](CC(C)C)NC(=O)[C@H](CC(=O)O)NC(=O)[C@H](Cc2c[nH]cn2)NC(=O)[C@@H](CC(=O)O)NC(=O)[C@@H](Cc2c[nH]c3ccccc23)NC1=O` [Example 83, Cyclo[--D--Asp--His--Asp--D--Leu--Leu--D--Trp--]] (cyclo(D[dL]L[dW][dD]H)), the “Binding Activity on ET Receptor (R. act.) ETA” value in data set [2] came to 15. Besides, in data set [3], the “Binding Activity on ET Receptor (R. act.) ET8 *2” value was 43.
Taken in the same sequence, the figures for `CC(C)C[C@@H]1NC(=O)[C@@H](CC(C)C)NC(=O)[C@H](CC(=O)O)NC(=O)[C@H](Cc2c[nH]c3ccccc23)NC(=O)[C@@H](CC(=O)O)NC(=O)[C@@H](Cc2cn(C)c3ccccc23)NC1=O` [Example 95, Cyclo[--D--Asp--Trp--Asp--D--Leu--Leu--D--Trp(Me)--]] were 110 and 330.
Regarding `CC(C)C[C@@H]1NC(=O)[C@@H](CC(C)C)NC(=O)[C@H](CC(=O)OCc2ccccc2)NC(=O)[C@@H]2C[C@@H](OCc3ccccc3)CN2C(=O)[C@@H](CC(=O)OCc2ccccc2)NC(=O)[C@@H](Cc2c[nH]c3ccccc23)NC1=O` [cyclo[-D-Asp(OBzl)-Hyp(Bzl)-Asp(OBzl)-D-Leu-Leu-D-Trp-]], the ring closure, yield of all isomers in data set [1] (from CC(C)C[C@H](NC(=O)[C@@H](CC(C)C)NC(=O)[C@H](CC(=O)OCc1ccccc1)NC(=O)[C@@H]1C[C@@H](OCc2ccccc2)CN1C(=O)[C@@H](CC(=O)OCc1ccccc1)NC(=O)[C@@H](Cc1c[nH]c2ccccc12)NC(=O)OC(C)(C)C)C(=O)O, HONB/DCC (active ester), then TEA, DMF, 9.5 mM, 16.0 h, 3 steps) is 82.6%.
In data set [1] (from CC(C)C[C@H](NC(=O)[C@@H](CC(C)C)NC(=O)[C@H](CC(=O)OCc1ccccc1)NC(=O)[C@H](C)NC(=O)[C@@H](CC(=O)OCc1ccccc1)NC(=O)[C@@H](Cc1c[nH]c2ccccc12)NC(=O)OC(C)(C)C)C(=O)O, HONB/DCC (active ester), TEA, DMF, 5.0 mM, 4 steps), `CC(C)C[C@@H]1NC(=O)[C@@H](CC(C)C)NC(=O)[C@H](CC(=O)O)NC(=O)[C@H](C)NC(=O)[C@@H](CC(=O)O)NC(=O)[C@@H](Cc2c[nH]c3ccccc23)NC1=O` [cyclo[-D-Asp-Ala-Asp-D-Leu-Leu-D-Trp-]] registered a ring closure, yield of all isomers of 18.2%.
In data set [1] (from CC(C)C[C@H](NC(=O)[C@@H](CC(C)C)NC(=O)[C@@H](CC(=O)OCc1ccccc1)NC(=O)[C@H](C)NC(=O)[C@@H](CC(=O)OCc1ccccc1)NC(=O)[C@@H](Cc1c[nH]c2ccccc12)NC(=O)OC(C)(C)C)C(=O)O, HONB/DCC (active ester), TEA, DMF, 5.0 mM, 4 steps), `CC(C)C[C@@H]1NC(=O)[C@@H](CC(C)C)NC(=O)[C@@H](CC(=O)O)NC(=O)[C@H](C)NC(=O)[C@@H](CC(=O)O)NC(=O)[C@@H](Cc2c[nH]c3ccccc23)NC1=O` [cyclo[-D-Asp-Ala-D-Asp-D-Leu-Leu-D-Trp-]] returned a ring closure, yield of all isomers of 15.3%.
On to `CC(C)C[C@@H]1NC(=O)[C@@H](CC(C)C)NC(=O)[C@@H](CCC(=O)O)NC(=O)[C@H](C)NC(=O)[C@@H](CC(=O)O)NC(=O)[C@@H](Cc2c[nH]c3ccccc23)NC1=O` [cyclo[-D-Asp-Ala-D-Glu-D-Leu-Leu-D-Trp-]], for which, in data set [1] (from CC(C)C[C@H](NC(=O)[C@@H](CC(C)C)NC(=O)[C@@H](CCC(=O)OCc1ccccc1)NC(=O)[C@H](C)NC(=O)[C@@H](CC(=O)OCc1ccccc1)NC(=O)[C@@H](Cc1c[nH]c2ccccc12)NC(=O)OC(C)(C)C)C(=O)O, HONB/DCC (active ester), TEA, DMF, 4.97 mM, 16.0 h, 4 steps), the ring closure, yield of all isomers was found to be 10.8%.
`CC(C)C[C@@H]1NC(=O)[C@@H](CC(C)C)NC(=O)[C@H](CCC(=O)O)NC(=O)[C@H](C)NC(=O)[C@@H](CC(=O)O)NC(=O)[C@@H](Cc2c[nH]c3ccccc23)NC1=O` [cyclo[-D-Asp-Ala-Glu-D-Leu-Leu-D-Trp-]]: the ring closure, yield of all isomers in data set [1] (from CC(C)C[C@H](NC(=O)[C@@H](CC(C)C)NC(=O)[C@H](CCC(=O)OCc1ccccc1)NC(=O)[C@H](C)NC(=O)[C@@H](CC(=O)OCc1ccccc1)NC(=O)[C@@H](Cc1c[nH]c2ccccc12)NC(=O)OC(C)(C)C)C(=O)O, HONB/DCC (active ester), TEA, DMF, 4.97 mM, 16.0 h, 4 steps) was 24.1%.
Turning to `CC(C)C[C@@H]1NC(=O)[C@@H](CC(C)C)NC(=O)[C@H](CC(=O)O)NC(=O)[C@H](CC(=O)NCCc2c[nH]c3ccccc23)NC(=O)[C@@H](CC(=O)O)NC(=O)[C@@H](Cc2c[nH]c3ccccc23)NC1=O` [cyclo[-D-Asp-Asn(CH2 CH2 -Ind)-Asp-D-Leu-Leu-D-Trp-]], the ring closure, yield of all isomers in data set [1] (from CC(C)C[C@H](NC(=O)[C@@H](CC(C)C)NC(=O)[C@H](CC(=O)OCc1ccccc1)NC(=O)[C@H](CC(=O)NCCc1c[nH]c2ccccc12)NC(=O)[C@@H](CC(=O)OCc1ccccc1)NC(=O)[C@@H](Cc1c[nH]c2ccccc12)NC(=O)OC(C)(C)C)C(=O)O, 4 steps) worked out at 19.4%.
With `CC(C)C[C@@H]1NC(=O)[C@@H](c2cccs2)NC(=O)[C@H](CC(=O)O)NC(=O)[C@H](CC(=O)NCCc2c[nH]c3ccccc23)NC(=O)[C@@H](CC(=O)O)NC(=O)[C@@H](Cc2c[nH]c3ccccc23)NC1=O` [cyclo[-D-Asp-Asn(CH2 CH2 -Ind)-Asp-D-Thg(2)-Leu-D-Trp-]], in data set [1] (from CC(C)C[C@H](NC(=O)[C@H](NC(=O)OC(C)(C)C)c1cccs1)C(=O)N[C@H](Cc1c[nH]c2ccccc12)C(=O)N[C@H](CC(=O)OCc1ccccc1)C(=O)N[C@@H](CC(=O)NCCc1c[nH]c2ccccc12)C(=O)N[C@@H](CC(=O)OCc1ccccc1)C(=O)O, 4 steps), the ring closure, yield of all isomers turned out to be 9.5%.
`CC(C)C[C@@H]1NC(=O)[C@@H](CC(C)C)NC(=O)[C@H](CC(=O)O)NC(=O)[C@H](CC(=O)NCCc2ccccc2)NC(=O)[C@@H](CC(=O)O)NC(=O)[C@@H](Cc2c[nH]c3ccccc23)NC1=O` [cyclo[-D-Asp-Asn(CH2 CH2 Ph)-Asp-D-Leu-Leu-D-Trp-]] gave a ring closure, yield of all isomers in data set [1] (from CC(C)C[C@H](NC(=O)[C@@H](CC(C)C)NC(=O)[C@H](CC(=O)OCc1ccccc1)NC(=O)[C@H](CC(=O)NCCc1ccccc1)NC(=O)[C@@H](CC(=O)OCc1ccccc1)NC(=O)[C@@H](Cc1c[nH]c2ccccc12)NC(=O)OC(C)(C)C)C(=O)O, HONB/DCC (ONB active ester), then TEA, DMF, 3.46 mM, 16.0 h, 4 steps) of 24.1%.
For “Cyclo[--D--Asp--D,L-Tic--Asp--D--Leu--Leu--D--Trp--] [Example 86]”, the “Binding Activity on ET Receptor (R. act.) ETA” value in data set [2] is reported as 38. Besides, the “Binding Activity on ET Receptor (R. act.) ET8 *2” value in data set [3] was determined as 240.
